Source: patent US7115624B1, “Method of inhibiting protein tyrosine phosphatase 1B and/or T-cell protein tyrosine phosphatase 4 and/or other PTPases with an Asp residue at position 48” (Novo Nordisk A/S, priority 1999, dated 2006)
Substitutions are numbered along the chain they refer to.

Experiments:
Type in all cases: biochemical
LAR = target: T1, LAR (Homo sapiens, UniProt P10586); assay: PTPase inhibition, p-nitrophenyl phosphate substrate, Ki; conditions: pH 7.0 (Table 5); read-out: Ki values, LAR
T1 sequence (P10586 1285-1907 limits assumed): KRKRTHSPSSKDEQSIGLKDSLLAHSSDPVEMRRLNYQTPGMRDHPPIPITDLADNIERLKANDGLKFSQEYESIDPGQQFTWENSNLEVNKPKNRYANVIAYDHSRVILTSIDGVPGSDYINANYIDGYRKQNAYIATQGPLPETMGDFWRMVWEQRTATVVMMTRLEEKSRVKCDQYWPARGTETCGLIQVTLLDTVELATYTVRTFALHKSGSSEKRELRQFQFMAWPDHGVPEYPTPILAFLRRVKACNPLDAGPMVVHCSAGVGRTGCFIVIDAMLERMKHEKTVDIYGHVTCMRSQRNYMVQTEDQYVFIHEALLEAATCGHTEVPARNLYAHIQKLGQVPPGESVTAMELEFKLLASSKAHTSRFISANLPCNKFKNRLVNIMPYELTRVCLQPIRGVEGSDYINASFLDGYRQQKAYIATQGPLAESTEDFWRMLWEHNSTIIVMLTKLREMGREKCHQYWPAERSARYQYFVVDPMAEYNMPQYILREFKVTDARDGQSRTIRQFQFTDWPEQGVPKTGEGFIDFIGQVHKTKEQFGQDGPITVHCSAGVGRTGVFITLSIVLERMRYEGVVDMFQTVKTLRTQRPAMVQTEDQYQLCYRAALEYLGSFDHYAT
Experimental: The compounds are evaluated for biological activity with a truncated form of PTP1B (corresponding to the first 321 amino acids), which was expressed in E. coli and purified to apparent homogeneity using published procedures well-known to those skilled in the art. The enzyme reactions are carried out using standard conditions essentially as described by Burke et al. (Biochemistry 35; 15989–15996 (1996)) incorporated by reference. […] Appropriate concentrations of the compounds of the invention (e.g., 0.1 to 100 μM) are added to the reaction mixtures containing different concentrations of the substrate, p-nitrophenyl phosphate (range: 0.16 to 10 mM—final assay concentration). The buffer used was 50 mM HEPES pH 7.0, 100 mM sodium chloride, 0.1% (w/v) bovine serum albumin, 5 mM glutathione, and 1 mM EDTA. The reaction was started by addition of the enzyme and carried out in microtiter plates at 25° C. for 60 minutes. The reactions are stopped by addition of NaOH. The enzyme activity was determined by measurement of the absorbance at 405 nm with appropriate corrections for absorbance at 405 nm of the compounds and p-nitrophenyl phosphate. The data are analyzed using nonlinear regression fit to classical Michaelis Menten enzyme kinetic models. Inhibition is expressed as Ki values in μM.

PTPε = target: T2, PTPε (Homo sapiens, UniProt P23469); assay: as above; conditions: pH 7.0 (Table 5); read-out: Ki values, PTPε
T2 construct: PTPε D1
T2 sequence (P23469 135-394 limits assumed): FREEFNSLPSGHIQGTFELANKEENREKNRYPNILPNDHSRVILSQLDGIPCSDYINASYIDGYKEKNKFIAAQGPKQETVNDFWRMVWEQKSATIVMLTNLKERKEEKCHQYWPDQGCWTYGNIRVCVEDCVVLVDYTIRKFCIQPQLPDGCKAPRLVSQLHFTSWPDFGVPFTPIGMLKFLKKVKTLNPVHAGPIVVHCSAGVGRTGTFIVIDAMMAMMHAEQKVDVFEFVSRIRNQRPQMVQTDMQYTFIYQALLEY
Experimental: (§3) The assay conditions are as follows. Appropriate concentrations of the compounds of the invention (e.g., 0.1 to 100 μM) are added to the reaction mixtures containing different concentrations of the substrate, p-nitrophenyl phosphate (range: 0.16 to 10 mM—final assay concentration). The buffer used was 50 mM HEPES pH 7.0, 100 mM sodium chloride, 0.1% (w/v) bovine serum albumin, 5 mM glutathione, and 1 mM EDTA. The reaction was started by addition of the enzyme and carried out in microtiter plates at 25° C. for 60 minutes. The reactions are stopped by addition of NaOH. […] The data are analyzed using nonlinear regression fit to classical Michaelis Menten enzyme kinetic models. Inhibition is expressed as Ki values in μM.

PTPβ = PTPβ (Homo sapiens, UniProt P23467); assay: as above; conditions: pH 7.0 (Table 5); read-out: Ki values, PTPβ
Chain of PTPβ (P23467 1703-1963 limits assumed): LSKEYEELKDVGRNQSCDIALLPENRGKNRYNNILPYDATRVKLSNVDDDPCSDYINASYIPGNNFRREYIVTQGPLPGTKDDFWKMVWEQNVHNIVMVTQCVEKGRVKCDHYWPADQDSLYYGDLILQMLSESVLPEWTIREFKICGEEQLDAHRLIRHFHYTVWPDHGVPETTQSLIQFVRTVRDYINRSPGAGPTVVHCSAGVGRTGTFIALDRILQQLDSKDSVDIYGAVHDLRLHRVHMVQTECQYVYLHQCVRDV
Experimental: as §3

PTP1B G259Q = target: T3, PTP1B G259Q (Homo sapiens, UniProt P18031, G259Q); assay: Enzyme kinetic analysis with mutant PTPs, Ki; conditions: pH 7.0
T3 sequence (P18031 1-435 G259Q): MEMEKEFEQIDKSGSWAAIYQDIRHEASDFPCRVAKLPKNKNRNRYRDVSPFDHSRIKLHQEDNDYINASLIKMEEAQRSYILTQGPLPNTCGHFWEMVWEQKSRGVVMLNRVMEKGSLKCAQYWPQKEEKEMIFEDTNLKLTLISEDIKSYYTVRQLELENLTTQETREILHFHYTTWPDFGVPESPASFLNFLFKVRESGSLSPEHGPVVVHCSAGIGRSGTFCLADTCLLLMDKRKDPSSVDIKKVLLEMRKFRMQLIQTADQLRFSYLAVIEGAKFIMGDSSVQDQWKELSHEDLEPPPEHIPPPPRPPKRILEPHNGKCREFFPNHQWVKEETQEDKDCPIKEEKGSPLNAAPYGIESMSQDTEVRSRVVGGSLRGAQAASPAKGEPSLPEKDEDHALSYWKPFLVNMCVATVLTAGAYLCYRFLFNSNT
Text: (§1) To test directly, whether the above compound was addressing the proposed region of PTP1B, Compound N was subjected to detailed enzyme kinetic analyses using a set of wildtype (wt) and mutant PTPs. Two enzymes, PTPα and PTPH1, were chosen as representatives for PTPs with bulky side chains in the 259 position. Using a combination of wt and PTP mutants it has previously been shown that Gln259 in PTPα, in addition to its direct effect, also indirectly influences the binding of inhibitors and substrates, most likely due to a negative influence on the rotational freedom of the side chain of Gln262 (Peters et al., J. Biol. Chem. 275: 18201–18209 (2000)). As described above, selectivity can be obtained by introducing a basic nitrogen into 2-(oxalylamino)-4,5,6,7-tetrahydrobenzo[b]thiophene-3-carboxylic acid that causes attraction in PTP1B due to salt bridge formation to Asp48 and repulsion against PTPs with an asparagine in the 48 position, such as PTPα. To analyze if the current approach based on steric hindrance is generally applicable, it was decided to include a PTP with an aspartic acid in position 48. PTPH1, which like PTP1B is an intracellular enzyme with one domain only, was selected for these studies. The results of these studies are shown below (Table 4).
(§2) The assay conditions are as follows.

PTP1B G259M = target: T4, PTP1B G259M (Homo sapiens, UniProt P18031, G259M); assay: Enzyme kinetic analysis with mutant PTPs, Ki; conditions: pH 7.0
T4 sequence (P18031 1-435 G259M): T3 sequence (P18031 1-435 G259Q) with Q259M
Text: as §1, §2

PTPH1 M259G = target: T5, PTPH1 M259G (Homo sapiens, UniProt P26045, M883G); assay: Enzyme kinetic analysis with mutant PTPs, Ki; conditions: pH 7.0
T5 sequence (P26045 628-913 M883G limits assumed): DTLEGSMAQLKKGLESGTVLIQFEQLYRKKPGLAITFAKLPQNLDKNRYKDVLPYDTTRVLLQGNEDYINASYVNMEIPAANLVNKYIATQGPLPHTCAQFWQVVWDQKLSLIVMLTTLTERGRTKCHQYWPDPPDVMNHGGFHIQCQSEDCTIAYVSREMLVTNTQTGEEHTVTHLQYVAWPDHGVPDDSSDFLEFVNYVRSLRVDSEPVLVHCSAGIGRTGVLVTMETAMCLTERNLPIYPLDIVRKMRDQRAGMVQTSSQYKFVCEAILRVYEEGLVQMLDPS
Text: as §1, §2

Ki (LAR): 120 µM
Ki (PTPε): 460 µM
Ki (PTPβ): 15 µM
Ki (PTP1B G259Q): 65 µM
Ki (PTP1B G259M): 55 µM
Ki (PTPH1 M259G): 12 µM
Compound: O=C(O)C(=O)Nc1sc2c(c1C(=O)O)CCOC2COC1=NS(=O)(=O)c2ccccc21 (stereo not drawn) [Compound N, 7-(1,1-dioxo-1H-benzo[d]isothiazol-3-yloxymethyl)-2-(oxalyl-amino)-4,7-dihyd ro-5H-thieno[2,3-c]pyran-3-carboxylic acid]
